Earlier results, collected in the CATMoS acute toxicity set (Mansouri et al. 2021).
Values joined by “and” are separate entries in the source; they are usually repeats but may differ in a detail not shown here. Identical values can stand only once.

Experiment: rat acute oral toxicity
Conditions: in vivo

Row | Compound | LD50
1 | CC1CN(CCCCCCCCNC(=O)Oc2ccc3c(c2)C2(C)CCN(C)C2N3C)CC(C)O1 (stereo unspecified) | 56 mg/kg
2 | CCCCCCCCN | 315 mg/kg
3 | CN(C)S(=O)(=O)N(SC(F)(Cl)Cl)c1ccccc1 | 500 mg/kg
4 | CCC(=O)OC(C)c1ccccc1 (stereo unspecified) | 5200 mg/kg
5 | COP(=S)(OC)Oc1ccc(Sc2ccc(OP(=S)(OC)OC)c(C)c2)cc1C | 250 mg/kg
6 | CCc1cccc(CC)c1N(CNC(C)=O)C(=O)CCl | 3100 mg/kg
7 | N=C(N)NN=C1C=CC(=NNC(N)=S)C=C1 | 750 mg/kg
8 | CN(C)C(=O)Oc1cccc([N+](C)(C)C)c1 | 51 mg/kg
9 | NS(=O)(=O)c1cc(C(=O)O)cc(N2CCCC2)c1Oc1ccccc1 | 5600 mg/kg
10 | CC#CCC(C)[C@H](O)/C=C/[C@@H]1[C@H]2c3cccc(CCCC(=O)O)c3O[C@H]2C[C@H]1O (stereo partly specified) | 12 mg/kg and 11.6 mg/kg
11 | CCCCC(CC)CCl (stereo unspecified) | 7340 mg/kg
12 | CNC(=O)Oc1ccc(CCC#N)cc1 | 620 mg/kg
13 | c1ccc2c(c1)CCN1CCN=C1C2 | 60 mg/kg
14 | Cc1oc(=O)oc1COC(=O)[C@@H]1N2C(=O)[C@@H](NC(=O)[C@H](N)c3ccccc3)[C@H]2SC1(C)C | 10000 mg/kg
15 | CCOC(=O)C1CC2CC1C1OC21 (stereo unspecified) | 4760 mg/kg
16 | COc1cccc(N)c1 | 526 mg/kg
17 | CC(C)(C)NCC(O)COc1cccc2c1C[C@H](O)[C@H](O)C2 (stereo partly specified) | 5300 mg/kg
18 | NC(=O)C1c2ccccc2CCc2ccccc21 | 2400 mg/kg
19 | CC1=[N+](C)C2CCC1(c1ccccc1)c1ccccc12 (stereo unspecified) | 707 mg/kg
20 | CCCCOCCC#N | 7460 mg/kg
21 | O=C(O)[C@H](O)[C@@H](O)[C@H](O)[C@H](O)CO | 10400 mg/kg
22 | CCCCCCCCCCCCCCN(CC)C(C)(CO)CO | 1500 mg/kg
23 | N#CCCN1C(=O)C(O)N=C(c2ccccc2F)c2cc(Cl)ccc21 (stereo unspecified) | 3500 mg/kg
24 | COP(=O)(CCC(=O)NCO)OC | 13000 mg/kg

Row | Compound | LD50
25 | CC1=CC(=C2C(=O)c3ccccc3C2=O)C=CN1CCN1CCCCC1 | 390 mg/kg
26 | CC(C(=O)O)c1ccc2c(c1)OCc1cc(Cl)ccc1C2=O (stereo unspecified) | 12 mg/kg
27 | CCCNC(=O)c1sc(-c2cc(OC)c(OC)c(OC)c2)nc1C | 5600 mg/kg
28 | COC(=O)C(c1ccccc1Cl)N1CCc2sccc2C1 (stereo unspecified) | 1910 mg/kg
29 | COC(=O)c1ccc2nc(C(F)(F)F)[nH]c2c1 | 22.3 mg/kg
30 | CC(C)NC(=O)N1CC(=O)N(c2cc(Cl)cc(Cl)c2)C1=O | 3500 mg/kg
31 | CCOP(=O)(OCC)ON1C(=O)c2cccc3cccc(c23)C1=O | 70 mg/kg
32 | CS(=O)(=O)c1ccc(N)c(Cl)c1 | 9500 mg/kg
33 | CC(=O)c1ccc(C(O)C(CO)NC(=O)C(Cl)Cl)cc1 (stereo unspecified) | 1100 mg/kg
34 | C[C@H](CN1CCCC1)C(=O)c1ccc(C(F)(F)F)cc1 | 525 mg/kg
35 | S=C(NC1CCCCC1)NC1CCCCC1 | 500 mg/kg
36 | COc1ccc2c(c1)c(CC(=O)Oc1ccccc1C(=O)Oc1ccccc1C(=O)O)c(C)n2C(=O)c1ccc(Cl)cc1 | 63 mg/kg
37 | Oc1nc(O)nc(O)n1 | 7700 mg/kg
38 | CCC(C)=C1C(=O)N(c2ccccc2)N(c2ccccc2)C1=O | 2020 mg/kg
39 | CN(C)C(=O)CCNc1ccc(Br)cc1 | 1810 mg/kg
40 | Nc1ccc(C(F)(F)F)cc1NC(=O)c1cccnc1 | 850 mg/kg
41 | CC(C(c1ccc(Cl)cc1)c1ccc(Cl)cc1)[N+](=O)[O-] (stereo unspecified) | 750 mg/kg
42 | ClCCCCCCCCC(Cl)(Cl)Cl | 370 mg/kg
43 | CNC(=O)c1cc(Oc2ccc(N)c(F)c2)ccn1 | 500 mg/kg
44 | C=C(Cl)C#N | 25 mg/kg
45 | COc1c(C(C)(C)C)cc([N+](=O)[O-])c(C)c1[N+](=O)[O-] | 339 mg/kg
46 | O=C(O)c1cccnc1Nc1cccc(C(F)(F)F)c1 | 250 mg/kg
47 | Cc1ccc(N(CC2=NCCN2)c2cccc(O)c2)cc1 | 1250 mg/kg
48 | CCc1ccc(=O)n(CSP(=S)(OC)OC)n1 | 30 mg/kg

Row | Compound | LD50
49 | C=CCNP(=O)(OC=C(Cl)Cl)OCCCl (stereo unspecified) | 25 mg/kg
50 | COC(=O)C1=C(C)NC(C)=C(C(=O)OCCN2CCN(C(c3ccccc3)c3ccccc3)CC2)C1c1cccc([N+](=O)[O-])c1 (stereo unspecified) | 156 mg/kg
51 | CCN(CCCl)c1ccccc1 | 616 mg/kg
52 | CCCCCOc1ccc(Br)cc1COCCN(CC)CC | 320 mg/kg
53 | C#CC(OC(=O)C1C(C=C(C)C)C1(C)C)/C(C)=C/CC (stereo unspecified) | 1680 mg/kg
54 | O=S1(=O)CC(Cl)(Cl)C(Cl)(Cl)C1 | 87 mg/kg
55 | O=C(Cl)c1cccc(S(=O)(=O)Cl)c1 | 1780 mg/kg
56 | O=c1c(Cl)c(Cl)cnn1-c1ccccc1 | 2520 mg/kg
57 | c1coc(-c2nc3ccccc3[nH]2)c1 | 500 mg/kg
58 | CCCCN(CC)c1c([N+](=O)[O-])cc(C(F)(F)F)cc1[N+](=O)[O-] | 10000 mg/kg
59 | COC(=O)N(CCCl)N=O | 20 mg/kg
60 | CC1(C)CCCO1 | 4000 mg/kg
61 | Oc1ccc(C(O)CCNCCCSc2ccccc2)cc1 (stereo unspecified) | 650 mg/kg
62 | CC(=O)NNc1ccc(N)cc1 | 10 mg/kg
63 | CCCCCOC(=S)S | 1000 mg/kg
64 | CCCC(=O)c1ccc2c(c1)N(CCCN1CCOCC1)c1ccccc1S2 | 3500 mg/kg
65 | O=C(Nc1ccccc1)c1ccccc1I | 6400 mg/kg
66 | O=C/C=C/O | 824 mg/kg
67 | CN1CCN(CCC=C2c3ccccc3Sc3ccc(S(=O)(=O)N(C)C)cc32)CC1 | 720 mg/kg
68 | O=C(O)Cc1cc(O)ccc1Nc1c(Cl)cccc1Cl | 1430 mg/kg
69 | CN1C(=O)OC(C)(C)C1=O | 2140 mg/kg
70 | CCCCCl | 2670 mg/kg
71 | CCC(C)(C)c1ccc(OCCCCN)c(C(C)(C)CC)c1 | 800 mg/kg
72 | CCC1OCSC1=NOC(=O)NC (stereo unspecified) | 24 mg/kg

Row | Compound | LD50
73 | CCN(Cc1ccncc1)C(=O)C(CO)c1ccccc1 (stereo unspecified) | 865 mg/kg
74 | Cc1cc(C)[nH]n1 | 1720 mg/kg
75 | N#CC(CCN1CCC(C(N)=O)(N2CCCCC2)CC1)(c1ccccc1)c1ccccc1 | 320 mg/kg
76 | CC(=O)c1ccc2c(c1)N(CCCN1CCOCC1)c1ccccc1S2 | 2500 mg/kg
77 | O=C1C(Cl)=C(Cl)C(=O)C1=C(Cl)Cl | 2300 mg/kg
78 | COP(=O)(OC1CCCCC1)SC (stereo unspecified) | 240 mg/kg
79 | CCOP(=S)(OCC)SCCl | 7 mg/kg
80 | CC=Cc1ccc(OC(C)=O)c(OC)c1 | 3450 mg/kg
81 | Clc1cc(Cl)cc(Cl)c1 | 800 mg/kg
82 | COP(=S)(OC)Oc1ccc(Cl)c([N+](=O)[O-])c1 | 500 mg/kg
83 | COP(=S)(OC)SC1CCSc2ccc(Cl)cc21 (stereo unspecified) | 200 mg/kg
84 | NC(=S)NC(N)=S | 5 mg/kg
85 | CCCCOC(=O)CCCOc1ccc(Cl)cc1Cl | 300 mg/kg
86 | OCP(CO)CO | 178 mg/kg
87 | SCCc1cnccn1 | 158 mg/kg
88 | Cc1cnc(C)c(C)n1 | 806 mg/kg
89 | CN(C)CCN1C(=O)c2ccccc2Nc2cc(Cl)ccc21 | 242 mg/kg
90 | CCN(CC)CCNC(=O)C(C)(C)Oc1ccc(Cl)cc1 | 300 mg/kg
91 | CCCCN(CCCC)CCC(O)c1cc2c(Cl)cc(Cl)cc2c2cc(C(F)(F)F)ccc12 (stereo unspecified) | 3400 mg/kg
92 | c1nc(NC2CC2)c2ncn(C3CC3)c2n1 | 130 mg/kg
93 | Cc1ccccc1N1C(=O)C=CC1=O | 250 mg/kg
94 | COCCCO | 5710 mg/kg
95 | Nc1ncnc2nccnc12 | 745 mg/kg
96 | Cc1ccc(N)cc1Cl | 655 mg/kg

Row | Compound | LD50
97 | COc1ccc2c(c1OC)C13CCN(C)C(C2)C1(O)CCC(O)C3 (stereo unspecified) | 339 mg/kg
98 | CCN=C1SC(=NOC(=O)NC)C(C)(C)S1 | 6.3 mg/kg
99 | CCCCN1C(=O)c2cccc([N+](=O)[O-])c2C1=O | 2030 mg/kg
100 | CN1CCN(C2=Nc3cc(Cl)ccc3Nc3ccccc32)CC1 | 251 mg/kg
101 | CC1(C)C(=O)[C@@]2(C)CC[C@@H]1C2 | 6160 mg/kg
102 | CC(=O)OC1CCC(N2CCCCC2)CC1 (stereo unspecified) | 1950 mg/kg
103 | CC(=O)c1cccc(Oc2ccccc2)c1 | 4160 mg/kg
104 | O=C(Nc1ccc(Br)cc1)c1cc(Br)ccc1O | 410 mg/kg
105 | CCCCC1C(=O)NN(c2ccccc2)C1=O (stereo unspecified) | 1750 mg/kg
106 | CC(Cl)CCC(C)Cl (stereo unspecified) | 4000 mg/kg
107 | CCOC(C1=NCC(CC)(CC)CN1)c1ccc(Cl)cc1 (stereo unspecified) | 375 mg/kg
108 | CN(C)C(=N)NC#N | 3840 mg/kg
109 | OC1(c2ccc(F)cc2)c2ccccc2C2=NCCN21 (stereo unspecified) | 200 mg/kg
110 | Nc1ccc(N(c2ccccc2)c2ccc(N)cc2)cc1 | 330 mg/kg
111 | CCN(CC)CCCNC(=O)C(C)(C)Oc1ccc(Cl)cc1 | 150 mg/kg
112 | COc1ccc2cc([C@H](C)C(=O)OCCN3CCN(Cc4ccc(N)cc4)CC3)ccc2c1 | 1600 mg/kg
113 | CCCCOc1ccc(OCC(=O)N(CCN(CC)CC)c2cc(OCC)ccc2OCC)cc1 | 2400 mg/kg
114 | CCC(=C(c1ccc(OCCN(C)C)cc1)c1ccc(OP(=O)(O)O)cc1)c1ccc(C(C)C)cc1 | 785 mg/kg
115 | COc1cc2c3cc1Oc1cc(ccc1O)C[C@@H]1c4c(cc(OC)c(O)c4Oc4ccc(cc4)C[C@@H]3N(C)CC2)CC[N+]1(C)C | 28 mg/kg
116 | CC12CC1(C)C(=O)N(c1cc(Cl)cc(Cl)c1)C2=O (stereo unspecified) | 7000 mg/kg
117 | CCCCCCCCCCCC(=O)OC1=C(c2c(C)cc(C)cc2C)C(=O)c2ccccc21 | 9500 mg/kg
118 | CN(C)[C@@H]1C(O)=C(C(N)=O)C(=O)[C@@]2(O)C(O)=C3C(=O)c4c(O)cccc4[C@@](C)(O)[C@H]3[C@H](O)[C@@H]12 | 4800 mg/kg
119 | O=C(CN1CCNCC1)NC1CCCCC1 | 3900 mg/kg
120 | CC1CCCC(C)N1CCCNc1n[nH]c2ccccc12 (stereo unspecified) | 700 mg/kg

Row | Compound | LD50
121 | CCCCOCCCOC(=O)CCOc1cc(Cl)c(Cl)cc1Cl | 500 mg/kg
122 | CN1CCCCC1CCN1c2ccccc2Sc2ccc(Cl)cc21 (stereo unspecified) | 1200 mg/kg
123 | CC(O)CN(C)c1ccc(NN)nn1 (stereo unspecified) | 1230 mg/kg
124 | ClC(Cl)(Cl)c1ccc(C(Cl)(Cl)Cl)cc1 | 3200 mg/kg
125 | C[C@H](O)[C@H](O)[C@H]1CNc2[nH]c(N)nc(=O)c2N1 | 1000 mg/kg
126 | COP(=S)(OC)SCSCC=C(Cl)Cl | 85 mg/kg
127 | COc1ccc(OCC(=O)N[C@@H]2C(=O)N3[C@@H]2SC(C)(C)[C@@H]3C(=O)O)cc1F | 7000 mg/kg
128 | COCC(C)N(C(=O)CCl)c1c(C)csc1C (stereo unspecified) | 397 mg/kg
129 | CC[n+]1c(C=C2Sc3ccccc3N2C)ccc2ccccc21 | 2240 mg/kg
130 | O=C(O)CSc1nc(-c2ccccc2)ns1 | 500 mg/kg
131 | CCN(CC)CCOC(=O)C1(C2CCCCC2)CCCCC1 | 1290 mg/kg
132 | O=c1[nH]c(=O)c2ccccc2o1 | 750 mg/kg
133 | Cc1ccc(C)c(N)c1 | 1300 mg/kg
134 | CCC(=O)O[C@]1(c2ccccc2)CCN(C)C[C@@H]1C | 90 mg/kg
135 | COC(=O)[C@@](C)(N)Cc1ccc(O)c(C)c1 | 1400 mg/kg
136 | c1cc(N(CC2CO2)CC2CO2)ccc1OCC1CO1 (stereo unspecified) | 1040 mg/kg
137 | CCCC(C)C(=O)O (stereo unspecified) | 2040 mg/kg
138 | CCC(OC(C)=O)C(CC(C)NC)(c1ccccc1)c1ccccc1 (stereo unspecified) | 44 mg/kg
139 | Fc1c(Br)c(Cl)c2nc(C(F)(F)F)[nH]c2c1Br | 6.28 mg/kg
140 | Clc1ccc([Si]23OCCN(CCO2)CCO3)cc1 | 520 mg/kg
141 | COC(=O)Nc1nc2cc(C(=O)c3ccccc3)ccc2[nH]1 | 714 mg/kg
